Results published in US20230340012A1, “NATURAL AND SYNTHETIC COMPOUNDS FOR TREATING CANCER AND OTHER DISEASES” (PACIFIC ARROW LIMITED, priority 2009, published 2023).
Where “and” joins values, the source holds several entries; their conditions need not be identical. Equal values may be shown once.

Tests used:
[1] = test system: DR5 (TNFRSF10B) in ES2 cells; experiment: Induction of DR5 in ES2 cells, Western blot; format: cell-based, human
Method: 1). Cells and drug-treatment: ES2 cells (Ovarian cancer cells) were cultured in RPMI1640 medium with 10% FBS, antibiotics (Pen Strep) and L-Glutamine in a 37° C., 5% CO2 incubator. Cells in log-growth phase were treated with Tig-R (10 ug/ml), or DMSO (as control) for 2 days.
(§1) 2). Total cell protein extraction: Drug-treated cells were collected, pelleted with centrifugation. The cell pellet was extracted with SDS-Sample buffer (containing PMSF and protease inhibitors cocktail). About 0.1 gram cell pellet was extracted in 1 ml of extraction buffer. The cell extract was then incubated in boiling water bath for 6 minutes with occasionally vortexing. The protein extract was immediately frozen in -80° C. before used.
3). SDS gel electrophoresis: 10-20 ug of protein sample was loaded into each lane of a 10% SDS gel. Electrophoresis was conducted with 100 volt constant for 2 hours.
(§2) 4). Western Blot: Separated proteins from SDS gel were transferred to a nitrocellulose membrane, which was blocked with 5% non-fat dry milk. The membrane was then exposed to 1st antibody (anti-TNFRSF10B) over night, then washed. The membrane was then incubated in 2nd antibody (anti-mouse-AP conjugated) for an hour, then washed. The immuno-bands were developed with BCIP/NBT substrate.
5. Another SDS gel with same protein loading was stained with Coomassie Brilliant Blue (CBB) for protein staining.
(§3) A. Cells and drug-treatment: HepG2 cells (liver cancer cells), CAPAN cells, ES2 cells (Ovary cell) were cultured in DMEM medium with 10% FBS, antibiotics (Pen Strep) and L-Glutamine in a 37° C., 5% CO2 incubator. Cells in log-growth phase were treated with Tig-R (10 ug/ml), Tig-S (4 ug/ml) or DMSO (as control) for 2 days.
as §1, with “B.” for “2).”
(§4) C. SDS gel electrophoresis: 10-20 ug of protein sample was loaded into each lane of a 10% SDS gel. Electrophoresis was conducted with 100 volt constant for 2 hours.
as §2, with “D.” for “4).”
(§5) E. Another SDS gel with same sample loading was stained with Coomassie Brilliant Blue (CBB) for protein staining.
(§6) F. Determination of Western blot band intensity: The band-images of Western blot were captured with a digital camera and the intensity of bands was determined using “Image J” software.

[2] = test system: DR5 (TNFRSF10B) in HepG2 cells; experiment: DR5 Western blot, HepG2 cells; format: cell-based, human; details: 2 days
Method: as §3
as §1, with “B.” for “2).”
as §4
as §2, with “D.” for “4).”
as §5, §6

[3] = test system: DR5 (TNFRSF10B) in U2OS cells; experiment: DR5 Western blot, U2OS cells; format: cell-based, human
[4] = test system: Capan cells (pancreas carcinoma); experiment: Agonist activity of anti-DR5 antibody with Tig-R in Capan cells, MTT; format: cell-based, human
Method: Capan cells (pancreas carcinoma) were cultured in RPMI1640 medium supplemented with 10% FBS, antibiotics (Pen Strep) and L-Glutamine. Cells were incubated in a 37° C., 5% CO2 incubator.
Antibody: Antibody against Human TRAIL R2/TNFRSF 10B, (from R&D Systems cat# MAB631-100).
Treatment. Cells in log-growth phase were used. Cells were plated in 96-welled plate with 10 K/well 1-2 days before treatment.
Antibody are serially diluted with medium before adding to culture and incubated for 2 days.
After a treatment for 2 days, the quantity of live cells is then determined with MTT assay*. The percentage of cell growth with drugs was determined by comparing to the no-drug (DMSO) control.

[5] = test system: Human leukemia cells K562; experiment: Inhibition of cell cycling, K562, flow cytometry; format: cell-based; details: K562, three days
Method: • 1. Method: Cells: Human leukemia cells K562 cultured in RPMI1640 medium. • 2. Drug: compound from present application or Tig-S (1000x stock solution in DMSO). • 3. Start cells concentration: 500000 /ml. • 4. Cells were cultured with drug (0 - 20 ug/ml) for total of three days. • 5. Cells were harvested by centrifugation (136xg, 6 minutes); fixed with 70% ethanol and kept in -20° C. before staining. • 6. Staining: Fixed cells were stained with Propidium iodide/RNase A/0.1% Triton X-100 in PBS. • 7. Flow Cytometry Analysis was performed in Baylor Core Facility with a LSRII instrument. • 8. Analysis: Single cell was gated and cell count - FL2-Area histogram were plotted. • 9. Cell distribution in different cell-cycle phases (G0/G1, S, G2/M) was analyzed.

[6] = test system: Human leukemia cells K562; experiment: Inhibition of human leukemia K562 cells, cell counting; format: cell-based
Method: Method: • 1. Cells: Human leukemia cells K562 in RPMI1640 medium. • 2. Drug: Tig-S (1000x stock solution in DMSO). • 3. Start cells concentration: […] (500000/ml). • 4. Cells were cultured with or without drug for total of four days. • 5. Cell number is doubled after 2 days of incubation. Fresh medium (equal volume, with or without drug) was then added to culture. • 6. Cells were counted every day.

[7] = ES2 cells, Tig-R, 2 days, single experiments 2-5
[8] = HepG2 cells, Tig-R 10 ug/ml, single experiments 1-4
[9] = U2OS cells, Tig-R, single experiments 1-2

Row | Compound | increase of DR5 over DMSO control cells ([1]; ES2, Tig-R 10 ug/ml, 2 days (Experiment 46)) [%] | increase of DR5 ([1]; ES2 cells, 10 ug/ml, 2 days (Experiment 42)) | DR5 band intensity, % of DMSO, Average (%) ([1]; ES2 cells, Tig-R, 2 days, average of 5 experiments) | DR5 Western blot band intensity (Image J) [1, 7] | DR5 band intensity, % of DMSO [1, 7] | increase of DR5 over DMSO control cells ([2]; HepG2, Tig-R 10 ug/ml) [%] | DR5 band intensity, % of DMSO, Average (%) ([2]; HepG2 cells, Tig-R 10 ug/ml, average of 4 experiments, SD 37) | DR5 Western blot band intensity (Image J) [2, 8] | DR5 band intensity, % of DMSO [2, 8] | DR5 band intensity, % of DMSO, Average (%) ([3]; U2OS cells, Tig-R, average of 2 experiments) | DR5 Western blot band intensity (Image J) [3, 9] | DR5 band intensity, % of DMSO [3, 9] | increase of DR5 over DMSO control cells ([3]; U2OS, Tig-R treatment) [%] | combined effect with anti-DR5 antibody ([4]; Capan, Tig-R 2.5 or 5 ug/ml) | % Inhibition Experimental ([4]; R 2.5 ug/ml alone) [%] | % Inhibition Experimental ([4]; R 5 ug/ml alone) [%] | concentration from which cells in G2/M phase decrease [5] [µg/mL] | effect on cell cycle [5] | No growth (IC100), K562 ([6]; beginning on day 2) [µg/mL] | IC50, Leukemia K562 cells growth ([6]; cell counting, up to four days)
1 | 24,28-O-Tigloyl-3β,16α, 21β, 22a, 24β, 28-hexahydroxyolean-12-ene [Tig-R] | 61 | at least 2 folds | 161 | 25103 and 17941 and 17133 and 19157 | 185% and 200% and 148% and 113% | 69 | 169 | 31752 and 19291 and 22435 and 33645 | 194% and 122% and 202% and 156% | 206 | 18269 and 16969 | 209% and 203% | 106 | synergistic | 20 | 29 | – | – | – | –
2 | CC=C(C)C(=O)OCC1(C)C(O)CCC2(C)C1CCC1(C)C2CC=C2C3CC(C)(C)C(OC(=O)C(C)=CC)C(O)C3(CO)C(O)CC21C (centres unmarked) [Tig-S] | – | – | – | – | – | – | – | – | – | – | – | – | – | – | – | – | ≥ 0.6 | arresting cells in the S-phase | ≥ 2.5 | about 0.6 ug/ml
